Article PMC10252989, “Significance of Astragaloside IV from the Roots of Astragalus mongholicus as an Acetylcholinesterase Inhibitor—From the Computational and Biomimetic Analyses to the In Vitro and In Vivo Studies of Safety” (International Journal of Molecular Sciences, 2023)

What was measured:
[1] = Biomimetic HPLC lipophilicity determination, cholesterol-bound column; format: physicochemical; settings: CHOL column; for s (slope of Soczewiński-Wachtmeister equation): ACN-phosphate buffer pH 7.4; for logkw: ACN-phosphate buffer pH 7.4, retention factor extrapolated to pure water
Excerpt: (§1) To determine lipophilicity of the tested astragalosides, the biomimetic-High Performance Liquid Chromatography (HPLC) systems with a cholesterol-bound (CHOL) stationary phase as well as the Immobilized Artificial Membrane (IAM) column were used. These stationary phases have pseudomembrane properties and therefore are widely applied in chromatographic practice to determine lipophilicity of various groups of compounds, including newly synthesized ones.
(§2) Based on the Soczewiński–Wachtmeister Equation (1), the logarithms of retention factors extrapolated to pure water (logkw) values were calculated. These values can be considered as an alternative to the n-octanol/water partition coefficient recognized as the lipophilicity descriptor [31]. logk = logkw − sφ(1) where logk is the logarithm of the retention factor in the mixed effluent systems; φ is the volume fraction of organic modifier in the mobile phase; s is the slope characteristic of a given solute in the chromatographic system.
(§3) The Shimadzu Vp liquid chromatographic system (Shimadzu, Kyoto, Japan) equipped with an LC 10AT pump, an SPD 10A UV-Vis detector, an SCL 10A system controller, a CTO-10 AS chromatographic oven and a Rheodyne injector valve with a 20 µL loop was applied in the HPLC measurements.
(§4) The solutions of the isolated A IV as well as pharmacopoeial standards of A I–A III were prepared in methanol (Merck, Darmstadt, Germany; p.a.) at a concentration of 1 mg/mL. […] The optimization process of the chromatographic separation was made before the experiment. The flow rate of the mobile phases was established to be 1 mL/min and the temperature was set at 20 °C. The tested compounds were detected with UV light at λ = 203 nm.
(§5) The IAM.PC.DD2 column (IAM; 100 × 4.6 mm i.d., 10 µm; Regis Technologies, Morton Grove, IL, USA) and cholesterol-bonded (CHOL; Cosmosil; 75 × 2 mm i.d., 2.5 µm; Genore, Warsaw, Poland) were used as the stationary phase while the buffered solutions of acetonitrile (ACN) were used as mobile phases. In each measurement the composition of the mobile phases was: 0.3; 0.4; 0.5; 0.6 v/v ACN-buffer. The buffer was prepared from solutions of both Na2HPO4 (0.02 mol/dm^3) and citric acid (0.01 mol/dm^3).
(§6) The dead-time values were measured from the citric acid peaks. All the reported logarithms of the retention factors were measured three times.

[2] = Biomimetic HPLC lipophilicity determination, IAM column; format: physicochemical; settings: for s (slope of Soczewiński-Wachtmeister equation): ACN-phosphate buffer pH 7.4; for logkw: ACN-phosphate buffer pH 7.4, retention factor extrapolated to pure water
Excerpt: as §1, §2, §3, §4, §5, §6

[3] = target: acetylcholinesterase (AChE) enzyme (Homo sapiens, UniProt P22303); experiment: TLC bioautography assay for inhibition of acetylcholinesterase; format: biochemical; settings: amount of compound per spot
Chain of acetylcholinesterase (AChE) enzyme (P22303 32-614): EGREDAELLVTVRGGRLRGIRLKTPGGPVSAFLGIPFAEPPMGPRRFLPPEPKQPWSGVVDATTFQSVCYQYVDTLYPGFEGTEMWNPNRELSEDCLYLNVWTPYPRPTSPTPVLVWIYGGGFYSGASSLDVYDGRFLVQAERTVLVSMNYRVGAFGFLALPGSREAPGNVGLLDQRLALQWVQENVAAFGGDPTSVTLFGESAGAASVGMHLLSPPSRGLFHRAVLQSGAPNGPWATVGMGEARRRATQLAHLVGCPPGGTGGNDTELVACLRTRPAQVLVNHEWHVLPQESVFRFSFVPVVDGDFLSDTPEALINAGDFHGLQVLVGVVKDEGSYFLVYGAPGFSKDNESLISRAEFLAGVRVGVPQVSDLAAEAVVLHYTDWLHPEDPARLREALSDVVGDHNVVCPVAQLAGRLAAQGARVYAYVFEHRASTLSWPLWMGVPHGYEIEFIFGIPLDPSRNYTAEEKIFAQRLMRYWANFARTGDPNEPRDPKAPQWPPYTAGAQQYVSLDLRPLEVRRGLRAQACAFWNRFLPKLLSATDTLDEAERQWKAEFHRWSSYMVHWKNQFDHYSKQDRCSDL
Experimental: In this study, the reference compounds of astragalosides II (A II), III (A III) and IV (A IV) at different concentrations were injected into the normal phase TLC plate covered with silica gel. Each experiment was repeated three times and the average values of the obtained peak areas corresponding to different injections of pure astragalosides were taken for the calculation of IC50 values of the saponins. For the three astragalosides: II, III and IV the following calibration curve equations were obtained: y = 70,773,628.9063x − 62,644.2995 (R^2 = 0.9732), y = 33,106,972.8125x − 67,429.4097 (R^2 = 0.9771), and y = 48,308,195.3125x + 3538.3021 (R^2 = 0.9981), respectively.
The TLC-bioautography method was used to determine the IC50 values of the tested saponins. Owing to the application of this technique, bright spots of active compounds were registered against the dark background. The TLC chromatogram was obtained on aluminium-covered normal phase TLC plates (Merck, Darmstadt, Germany, silica gel 60 F254).
To calculate the strength of the astragalosides, the IC50 values were determined for astragalosides II, III, and IV. For this purpose, 1 mg/mL solutions of all pure compounds were sprayed on the TLC plate using the Camag Linomat 5 (Muttenz, Switzerland) with the decreasing volumes in the range of 0.002–0.008 mg of compounds per spotevery 1 cm.
Later the TLC plate was subjected to the TLC-bioautography assay towards inhibitory properties against the AChE enzymeas described previously. Briefly, first the TLC plates were sprayed with asolution of 30 mg/20 mL of 1-naphtyl acetate. […] The chromatogram was analysed by the WinCats (v. 1.4, Camag) program and the peak areas of every spot were determined. Based on the numerical values obtained corresponding to the intensity of discoloured zones measured with the peak areas, the calibration curves were determined and the IC50 values were calculated as half of the peak area from the biggest spot that stayedwithin the linearity range area.

[4] = tested on: zebrafish (Danio rerio) embryos; experiment: Zebrafish embryo acute toxicity test (OECD Test No. 236); format: in vivo
Experimental: Zebrafish (Danio rerio) embryos were obtained from the Experimental Medicine Centre, Medical University of Lublin, Poland. The animals were kept in an incubator under the appropriate environmental conditions (28.5 ± 0.5 °C, light/dark cycle: 14/10 h) up to 96 h post-fertilization (hpf). For the studies, the National Institutes of Health Guide for the Care and Use of Laboratory Animals (Directive 2010/63/EU) was applied. Thus, for the yolk-feeding larvae up to 120 hpf ethical approval is not required. Nevertheless, all attempts were made to minimize the number of animals and their suffering. Immediately after the experiments, the larval zebrafish were euthanized in […] tricaine solution.
In order to assess the effect of astragaloside IV on the developing organism, the zebrafish embryo acute toxicity test was carried out according to the Organization for Economic Cooperation and Development recommendation for the testing of chemicals (Test No. 236) as described previously. One hour after fertilization, viable, perfectly spherical and completely transparent embryos were selected and transferred to 12 well plates (Sarstedt, Germany). The embryos were randomly divided into control and experimental groups. The embryos were kept in each well until the appropriate stage of development was reached of 96 hpf. Two batches of embryos (3 wells per batch, n = 5–6 per well) were kept in 3 mL of zebrafish E3 medium without treatment, i.e., the control group and that was supplemented with 25 µg/mL of astragaloside IV, i.e., the experimental group. Mortality was assessed after 23, 47, 71 and 95 h of exposition. Hatchability was evaluated after 71 and 95 h of exposition. Morphological abnormalities were scored after 95 h of exposition: heartbeat, heart oedema, yolk sac utilization/necrosis, jaw development, eye size, body axis and haemorrhage. Furthermore, to assess muscle function and performance, the touch-evoked response was performed by slight touching of the tail with metal tweezers. The criteria for the larval response were as follows: absent, decreased and normal, as described in detail in our previous paper.
The obtained data were pooled together. The Chi-squared test or the Fisher’s exact test was used for statistical purposes.

[5] = post-mortem brain tissues of mice; cited from earlier work
[6] = tested on: SH-SY5Y human neuroblastoma cell line; experiment: In vitro cytotoxicity test (MTT); format: cell-based; settings: for cell viability versus control group (saline): 24 h, MTT
Experimental: The SH-SY5Y human neuroblastoma cell lines (ATCC CRL-2266) were maintained in a1:1 mixture of Eagle’s Minimum Essential Medium and F12 Medium, supplemented with 10% (v/v) of foetal bovine serum. The cells were grown at 37 °C in a humidified incubator with 5% CO2.
The viability of SH-SY5Y cells was evaluated based on the reduction of the yellow tetrazolium salt (3-(4,5-dimethylthiazol-2-yl)-2,5-diphenyltetrazolium bromide or MTT) to the purple formazan crystals by the metabolically active cells. The cells were seeded onto the 96-well plates at the density of 10,000 cells/well, grown overnight and treated with astragaloside IV at 6, 12.5 or 25 μg/mL. Following 24 h of incubation the medium was replaced with 200 µL of fresh medium containing MTT (final concentration 0.5 mg/mL) and the cells were incubated for a further 4 h at 37 °C. The precipitated formazan was dissolved in 100 µL DMSO and the absorbance of the samples was measured at λ = 540 nm. The mean absorbance measured for the control cells, treated with the solvent (saline), was set to 100% cellular viability and used to calculate the percent of viable cells under each experimental condition.

Compound	s (slope of Soczewiński-Wachtmeister equation) [1]	logkw [1]	s (slope of Soczewiński-Wachtmeister equation) [2]	logkw [2]	IC50 [3] [mg]	mortality rate versus control ([4]; 25 µg/mL, 1, 2, 3 and 4 dpf, p > 0.05)	larval hatchability ([4]; 25 µg/mL, 3- and 4-day-old fish, p > 0.05)	scored morphological abnormalities versus control ([4]; 25 µg/mL, 95 h exposition)	touch-evoked response ([4]; 25 µg/mL, 95 h exposition)	logBB [5]	cell viability versus control group (saline) ([6]; 25 μg/mL)	cell viability versus control group (saline) ([6]; 6 and 12.5 μg/mL)	decrease in cellular SH-SY5Y viability ([6]; all analysed conditions (6, 12.5, 25 μg/mL))
CC(=O)OC1C(O)COC(OC2CCC34CC35CCC3(C)C(C6(C)CCC(C(C)(C)O)O6)C(O)CC3(C)C5CC(OC3OC(CO)C(O)C(O)C3O)C4C2(C)C)C1OC(C)=O (stereo not drawn) [A I, Astragaloside I]	5.590	3.234	6.040	2.713	–	–	–	–	–	–	–	–	–
CC(C)(O)[C@@H]1CC[C@](C)([C@H]2[C@@H](O)C[C@@]3(C)[C@@H]4C[C@H](O[C@@H]5O[C@H](CO)[C@@H](O)[C@H](O)[C@H]5O)[C@H]5C(C)(C)[C@@H](O[C@@H]6OC[C@@H](O)[C@H](O)[C@H]6O)CC[C@@]56C[C@@]46CC[C@]23C)O1 [A IV, Astragaloside IV]	6.000	2.668	3.965	1.727	0.00316	no difference	did not affect	no difference	normal	0.49	slightly lower	slightly higher	no significant decrease
CC(C)(O)[C@@H]1CC[C@](C)([C@H]2[C@@H](O)C[C@@]3(C)[C@@H]4C[C@H](O)[C@H]5C(C)(C)[C@@H](O[C@@H]6OC[C@@H](O)[C@H](O)[C@H]6O[C@@H]6O[C@H](CO)[C@@H](O)[C@H](O)[C@H]6O)CC[C@@]56C[C@@]46CC[C@]23C)O1 [A III, Astragaloside III]	5.681	2.627	4.165	1.807	0.0033	–	–	–	–	–	–	–	–
CC(=O)O[C@H]1[C@H](O[C@H]2CC[C@]34C[C@]35CC[C@]3(C)[C@@H]([C@@]6(C)CC[C@@H](C(C)(C)O)O6)[C@@H](O)C[C@@]3(C)[C@@H]5C[C@H](O[C@@H]3O[C@H](CO)[C@@H](O)[C@H](O)[C@H]3O)[C@H]4C2(C)C)OC[C@@H](O)[C@@H]1O [A II, Astragaloside II]	6.570	3.209	4.715	2.104	0.00488	–	–	–	–	–	–	–	–
